Data on 68 molecules can be found in US20260053861A1, “CELL COMPOSITIONS AND METHODS OF USING THE SAME” (THE REGENTS OF THE UNIVERSITY OF CALIFORNIA, priority 2022, published 2026).

Where a name gives a salt, the structure may show the parent alone.

One assay has as its system hPSC-SCs.
Conditions: not given
In turn, `CN1C2CC(=O)CC1C(O)C2` (centres unmarked) [6-Hydroxytropinone] had a z.score.t of −0.3867.

Molecule `COc1ccc2c(c1OC)CN1CCc3cc4c(cc3C1C2)OCO4` (centres unmarked) [(d,l)-Tetrahydroberberine] registered a z.score.t of 2.041. `CCN1C[C@]2(COC)[C@H](O)C[C@H](OC)[C@@]34[C@@H]5C[C@@]6(O)[C@H](OC(=O)c7ccccc7)[C@@H]5[C@@](OC(C)=O)([C@@H]([C@H](OC)[C@H]23)[C@@H]14)[C@@H](O)[C@@H]6OC` [Aconitine] showed a z.score.t of −0.2486. Regarding `Nc1ncnc2c1ncn2[C@@H]1O[C@H](COP(=O)(O)O)[C@@H](O)[C@H]1O.O` [Adenosine 5′-monophosphate monohydrate], the z.score.t was determined as 1.049. Still for that read-out and setting: as for `C[C@]12CCC(=O)C=C1CC[C@@H]1[C@@H]2C(=O)C[C@]2(C)C(=O)CC[C@@H]12` [Adrenosterone], the figure is 1.101. The same measure, in the same setting: next, `CC[C@H]1[C@@H]2C[C@H]3[C@@H]4N(C)c5ccccc5[C@]45C[C@@H]([C@H]2[C@H]5O)N3[C@@H]1O` [Ajmaline]: 0.1767; `CCCSc1ccc2nc(NC(=O)OC)[nH]c2c1` [Albendazole]: −1.079; `CCC(=O)OCC(=O)[C@@]1(OC(=O)CC)[C@H](C)C[C@H]2[C@H]3[C@H]([C@@H](O)C[C@@]21C)[C@@]1(C)C=CC(=O)C=C1C[C@H]3Cl` [Alclometasone dipropionate]: 1.456.

`C=CC[N@@+]12CC[C@@]34c5ccccc5N5/C=C6/[C@H]7C[C@H]8[C@@]9(CC[N@@+]8(CC=C)C/C7=C/CO)c7ccccc7N(/C=C(/[C@@H](C[C@@H]31)/C(=C\CO)C2)[C@H]54)[C@@H]69.[Cl-].[Cl-]` [Alcuronium chloride] yielded a z.score.t of −0.8925. The same measure, in the same setting: as for `CC(=O)OCC(=O)[C@H]1CC[C@H]2[C@@H]3CC[C@H]4C[C@H](O)CC[C@]4(C)[C@H]3C(=O)C[C@]12C` [Alfadolone acetate], the figure is 0.3651; as for `NCCCCCC(=O)O` [Aminocaproic acid], −0.4749.

In turn, `CN(C)CCC=C1c2ccccc2CCc2ccccc21.Cl` [Amitryptiline hydrochloride] gave a z.score.t of −0.7142. Same read-out and setting: next, `CCCc1ncc(C[n+]2ccccc2C)c(N)n1` [Amprolium hydrochloride]: −1.615; `c1cncc([C@@H]2CCCCN2)c1` [Anabasine]: −0.1239; `C[C@]12CC[C@@H](O)C[C@@H]1CC[C@@H]1[C@@H]2CC[C@]2(C)C(=O)CC[C@@H]12` [Androsterone]: −1.265. The same measure, in the same setting: next, `COc1ccc(C[C@H]2NC[C@H](O)[C@H]2OC(C)=O)cc1` [Anisomycin]: −2.056.

Molecule `Cc1cc(=O)n(-c2ccccc2)n1C` [Antipyrine] showed a z.score.t of −0.2131.

Still in this assay, the particulars now being: HTS viability of hPSC-SCs in the presence of 30 mM glucose; Prestwick library; Table S4.
With `c1coc(CNc2ncnc3nc[nH]c23)c1` [6-Furfurylaminopurine], the z.score.t is −0.7183. On the same count and under the same terms, next, `CC(C)(C)NC[C@@H](O)COc1cccc2c1CCCC2=O.Cl` [(+) -Levobunolol hydrochloride]: 1.281. The same measure, in the same setting: next, `CC(C)NC[C@@H](O)c1ccc(O)c(O)c1.O=C(O)C(O)C(O)C(=O)O` [(+)-Isoproterenol (+)-bitartrate salt]: 0.1019; `COc1ccc2cc([C@@H](C)C(=O)[O-])ccc2c1.[Na+]` [(R) -Naproxen sodium salt]: −0.3895. The same measure, in the same setting: as for `CC(C)NC[C@@H](O)COc1ccc(CC(N)=O)cc1` [(R)-(+)-Atenolol], the figure is −0.9395. For the molecule `CC(C)NC[C@@H](O)COc1cccc2ccccc12.Cl` [(R)-Propranolol hydrochloride], the z.score.t is −0.04682. Regarding `N[C@H]1CONC1=O` [(S)-(−)-Cycloserine], the z.score.t is −0.3729.

For `CC(C)(C)NC[C@H](O)COc1cccc2c1CCCC2=O.Cl` [(−) -Levobunolol hydrochloride], the z.score.t was determined as 0.8283. On the same count and under the same terms, next, `C=C[C@H]1CN2CC[C@H]1C[C@H]2[C@H](O)c1ccnc2ccccc12` [(−)-Cinchonidine]: 1.595; `COc1ccc(-c2cc(=O)c3c(O)cc(O)cc3o2)cc1` [Acacetin]: −0.03362; `CCCC(=O)Nc1ccc(OCC(O)CNC(C)C)c(C(C)=O)c1` (centres unmarked) [Acebutolol hydrochloride]: 0.3206. With `O=C(O)COC(=O)Cc1ccccc1Nc1c(Cl)cccc1Cl` [Aceclofenac], the z.score.t came out at 0.08508. Still for that read-out and setting: as for `COc1ccc2c(c1)c(CC(=O)OCC(=O)O)c(C)n2C(=O)c1ccc(Cl)cc1` [Acemetacin], the figure is −1.873. Same read-out and setting: next, `CC(=O)CC(c1ccc([N+](=O)[O-])cc1)c1c(O)c2ccccc2oc1=O` (centres unmarked) [Acenocoumarol]: −0.2425; `CC(=O)Nc1ccc(O)cc1` [Acetaminophen]: −0.3023; `CC(=O)Nc1nnc(S(N)(=O)=O)s1` [Acetazolamide]: 0.8639. Still for that read-out and setting: as for `CC(=O)c1ccc(S(=O)(=O)NC(=O)NC2CCCCC2)cc1` [Acetohexamide], the figure is 0.5856. For the molecule `CC(=O)c1ccc2c(c1)N(CCCN(C)C)c1ccccc1S2.O=C(O)/C=C\C(=O)O` [Acetopromazine maleate salt], the z.score.t was 0.1979. Still for that read-out and setting: next, `CC(=O)Oc1ccccc1C(=O)Oc1ccccc1C(=O)O` [Acetylsalicylsalicylic acid]: 0.3922; `Nc1nc2c(ncn2COCCO)c(=O)[nH]1` [Acyclovir]: 0.2916; `NC12CC3CC(CC(C3)C1)C2.NC12CC3CC(CC(C3)C1)C2.O=C(O)/C=C/C(=O)O` [Adamantamine fumarate]: −0.4942. Turning to `CCN(CC)CCOC(=O)C(c1ccccc1)c1ccccc1` [Adiphenine hydrochloride], the z.score.t is given as −0.765. Same read-out and setting: as for `COC(=O)C1=CO[C@@H](C)[C@H]2CN3CCc4c([nH]c5ccccc45)[C@@H]3C[C@H]12.Cl` [Ajmalicine hydrochloride], the figure is −0.6111. On the same count and under the same terms, as for `CCCCC(CC)CNC(=N)NC(=N)NCCCCCCNC(=N)NC(=N)NCC(CC)CCCC` (centres unmarked) [Alexidine dihydrochloride], the figure is −1.733. Same read-out and setting: next, `COc1cc2nc(N(C)CCCNC(=O)C3CCCO3)nc(N)c2cc1OC` (centres unmarked) [Alfuzosin hydrochloride]: −1.061; `C=CCN1CCCC1CNC(=O)c1cc2[nH]nnc2cc1OC` (centres unmarked) [Alizapride HCl]: 0.5437; `NC(=O)NC1NC(=O)NC1=O` (centres unmarked) [Allantoin]: 0.8036. Turning to `C=CCc1ccccc1OCC(O)CNC(C)C` (centres unmarked) [Alprenolol hydrochloride], the z.score.t is listed as −0.2572. The same measure, in the same setting: as for `CCCCC[C@H](O)/C=C/[C@H]1[C@H](O)CC(=O)[C@@H]1CCCCCCC(=O)O` [Alprostadil], the figure is 0.3375. As for `C=CCSCC1Nc2cc(Cl)c(S(N)(=O)=O)cc2S(=O)(=O)N1` (centres unmarked) [Althiazide], the z.score.t is recorded as −0.1239. On the same count and under the same terms, as for `CN(C)c1nc(N(C)C)nc(N(C)C)n1` [Altretamine], the figure is −0.7567; as for `Nc1c(Br)cc(Br)cc1CN[C@H]1CC[C@H](O)CC1` [Ambroxol hydrochloride], 0.837; as for `Cc1c(N(C)C)c(=O)n(-c2ccccc2)n1C` [Amidopyrine], −0.2278.

Regarding `NCC[C@H](O)C(=O)N[C@@H]1C[C@H](N)[C@@H](O[C@H]2O[C@H](CN)[C@@H](O)[C@H](O)[C@H]2O)[C@H](O)[C@H]1O[C@H]1O[C@H](CO)[C@@H](O)[C@H](N)[C@H]1O` [Amikacin hydrate], the z.score.t was −0.4543. On the same count and under the same terms, next, `N=C(N)NC(=O)c1nc(Cl)c(N)nc1N` [Amiloride hydrochloride dihydrate]: 0.07016; `Nc1ccc(C(=O)NCC(=O)O)cc1` [Aminohippuric acid]: 0.8825; `Cn1c(=O)c2[nH]cnc2n(C)c1=O` [Aminophylline]: 1.208. Consider `c1ccc(CNc2ncnc3[nH]cnc23)cc1` [Aminopurine, 6-benzyl], for which the z.score.t is on record as 0.3206. The same measure, in the same setting: as for `CCCCc1oc2ccccc2c1C(=O)c1cc(I)c(OCCN(CC)CC)c(I)c1` [Amiodarone hydrochloride], the figure is −1.609; as for `CN(C)CCCO[C@@H]1[C@H]2OC(C)(C)O[C@H]2O[C@@H]1[C@H](O)CO` [Amiprilose hydrochloride], 1.178; as for `CCN(CC)Cc1cc(Nc2ccnc3cc(Cl)ccc23)ccc1O` [Amodiaquin dihydrochloride dihydrate], −1.767.

With `Clc1ccc2c(c1)C(N1CCNCC1)=Nc1ccccc1O2` [Amoxapine], the z.score.t is reported as −0.09426.

For `CC1(C)S[C@@H]2[C@H](NC(=O)[C@H](N)c3ccc(O)cc3)C(=O)N2[C@H]1C(=O)O` [Amoxicillin], the z.score.t stood at 1.457. The same measure, in the same setting: next, `C[C@@H]1[C@H](O)[C@@H](C)/C=C/C=C/C=C/C=C/C=C/C=C/C=C/[C@H](O[C@@H]2O[C@H](C)[C@@H](O)[C@H](N)[C@@H]2O)C[C@@H]2O[C@](O)(C[C@@H](O)C[C@@H](O)[C@H](O)CC[C@@H](O)C[C@@H](O)CC(=O)O[C@H]1C)C[C@H](O)[C@H]2C(=O)O` [Amphotericin B]: 0.7312; `CC1(C)S[C@@H]2[C@H](NC(=O)[C@H](N)c3ccccc3)C(=O)N2[C@H]1C(=O)O` [Ampicillin trihydrate]: 1.287; `Cc1c(N)c(=O)n(-c2ccccc2)n1C` [Ampyrone]: 0.4205. Consider `Nc1cc(-c2ccncc2)c[nH]c1=O` [Amrinone], for which the z.score.t is recorded as −1.025. On the same count and under the same terms, next, `c1ccc(CN(CC2=NCCN2)c2ccccc2)cc1` [Antazoline hydrochloride]: −0.004573; `Cc1c(O)c(=O)n(-c2ccccc2)n1C` [Antipyrine, 4-hydroxy]: 0.04029. Still for that read-out and setting: next, `O=c1cc(-c2ccc(O)cc2)oc2cc(O)cc(O)c12` [Apigenin]: −0.2904. Same read-out and setting: next, `CN[C@@H]1[C@@H](O[C@H]2O[C@H](CO)[C@@H](N)[C@H](O)[C@H]2O)OC2C[C@@H](N)[C@@H](O[C@H]3[C@H](O)[C@@H](O)[C@H](N)C[C@@H]3N)OC2[C@@H]1O` (some centres unmarked) [Apramycin]: 0.1828.
